Key:
Prothrombin = Prothrombin (Homo sapiens, UniProt P00734)
Description: Inhibitory activity against thrombin

Coagulation factor X = Coagulation factor X (Homo sapiens, UniProt P00742); assay: Inhibitory activity against Coagulation factor Xa
Coagulation factor X, sequence (P00742 41-179 limits assumed): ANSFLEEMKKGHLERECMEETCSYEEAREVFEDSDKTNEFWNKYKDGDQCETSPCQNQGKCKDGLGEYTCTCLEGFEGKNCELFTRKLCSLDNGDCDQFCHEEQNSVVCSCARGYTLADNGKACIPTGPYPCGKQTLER
Coagulation factor X, sequence (P00742 235-488 limits assumed): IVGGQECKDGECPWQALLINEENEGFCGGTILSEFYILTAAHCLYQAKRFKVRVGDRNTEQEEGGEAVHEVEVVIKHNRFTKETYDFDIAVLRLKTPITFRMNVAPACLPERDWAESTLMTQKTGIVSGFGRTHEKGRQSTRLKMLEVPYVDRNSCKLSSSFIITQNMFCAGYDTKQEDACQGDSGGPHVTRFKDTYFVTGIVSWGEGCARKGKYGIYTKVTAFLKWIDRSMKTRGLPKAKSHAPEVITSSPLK

Row | Structure (SMILES) | Ki (Prothrombin) [nM] | Ki (Coagulation factor X) [nM]
1 | C[C@H]1CNc2cc(S(=O)(=O)N[C@H](CCCNC(=N)N)C(=O)N3CCCCC3C(=O)O)ccc2C1 (stereo partly drawn) | 19 | 
2 | CC(=N)N1CCC(Oc2ccc(C(Cc3ccc4ccc(C(=N)N)cc4c3)C(=O)O)cc2)CC1 (stereo not drawn) |  | 13
3 | O=S(=O)(Nc1cccc(OCCNc2ccncc2)c1)c1ccccc1 | 23 | 
